These results are taken from US20120184536A1, “COMPOSITIONS COMPRISING SPECIFIC UGT INHIBITORS AND METHODS OF USE THEREOF” (The Board of Trustees of the University of Arkansas, priority 2009, published 2012).

Data set [1] deals with T1, UGT1A10 (Homo sapiens, UniProt Q9HAW8).
T1 sequence (Q9HAW8 26-530): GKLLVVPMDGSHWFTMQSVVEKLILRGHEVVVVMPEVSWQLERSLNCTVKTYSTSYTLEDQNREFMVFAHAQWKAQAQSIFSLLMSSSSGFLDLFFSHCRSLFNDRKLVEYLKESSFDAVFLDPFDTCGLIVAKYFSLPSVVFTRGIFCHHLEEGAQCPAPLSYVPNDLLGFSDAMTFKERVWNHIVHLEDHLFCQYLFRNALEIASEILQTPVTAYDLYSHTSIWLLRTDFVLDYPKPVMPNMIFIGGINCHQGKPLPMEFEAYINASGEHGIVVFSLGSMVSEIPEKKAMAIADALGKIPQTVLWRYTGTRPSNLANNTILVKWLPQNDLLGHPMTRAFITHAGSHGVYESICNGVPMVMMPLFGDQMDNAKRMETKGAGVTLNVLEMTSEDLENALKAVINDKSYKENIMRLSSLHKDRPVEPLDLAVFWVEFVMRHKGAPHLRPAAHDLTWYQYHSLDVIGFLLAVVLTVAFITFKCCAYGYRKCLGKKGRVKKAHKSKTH
In words: Ki assays / kinetics and inhibition type, UGT1A10 (Example 2). How it is done: Recombinant UGT Isoform Incubations—Recombinant human UGT1A10 and it mutants were produced in baculovirus-infected insect cells as previously described (6, 7). Synthesis of inhibitors was described previously (2). For inhibition assays, UGT recombinant membrane protein (5 μg) was incubated in reaction buffer ([…] Tris-HCl (pH 7.4)/5 mM MgCl2/5 mM saccharolactone) and 2% DMSO with substrate, inhibitor and co-substrate, UDP-GlcUA, in a total volume of 30 μl. Substrates were added in DMSO, and controls were run with each assay. No additional detergents or other activators were used in the incubations. Reactions were started by the addition of co-substrate and incubated at 37° C. (90 min for 8-hydroxywarfarin; 30 min for 4-MU; 30 min for E2). […] Reactions were stopped by addition of 40 μl of ethanol, and all incubations were performed in duplicate.
TLC Analysis—For inhibition assays using 4-MU, E2, and 8-OH warfarin as substrates, aliquots (60 μl) of each sample were analyzed using thin layer chromatography (TLC) as described previously (3).
Each sample was centrifuged at 14,000 rpm for 8 min to spin down the protein, and 60 μl of the supernatant was analyzed by HPLC as described previously (8).

In data set [2] the target is T1, UGT1A10. Kind of data set: Ki assays / kinetics and inhibition type, UGT1A10 (Example 1). As to conditions: read-out: Km (Substrate), Km of the aglycone substrate.
In data set [3] the target is T2, UGT2B7 (Homo sapiens, UniProt P16662).
T2 sequence (P16662 24-529): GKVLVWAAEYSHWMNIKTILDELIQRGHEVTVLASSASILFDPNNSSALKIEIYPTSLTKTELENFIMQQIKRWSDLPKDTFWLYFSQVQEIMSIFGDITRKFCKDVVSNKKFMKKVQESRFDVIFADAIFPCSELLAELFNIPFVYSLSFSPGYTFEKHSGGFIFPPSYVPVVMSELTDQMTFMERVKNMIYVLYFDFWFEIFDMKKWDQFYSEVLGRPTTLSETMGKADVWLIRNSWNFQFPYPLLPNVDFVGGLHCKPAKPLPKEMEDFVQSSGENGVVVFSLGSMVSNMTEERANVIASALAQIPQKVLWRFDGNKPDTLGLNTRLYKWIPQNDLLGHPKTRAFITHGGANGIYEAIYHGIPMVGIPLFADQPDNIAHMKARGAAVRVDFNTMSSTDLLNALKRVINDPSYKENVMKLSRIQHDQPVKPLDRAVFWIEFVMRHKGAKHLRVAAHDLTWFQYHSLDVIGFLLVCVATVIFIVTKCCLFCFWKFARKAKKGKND
Kind of data set: Ki assays / kinetics and inhibition type, UGT2B7 (Example 1). The following applies: human.

Data set [4] addresses T3, UGT1A8 (Homo sapiens, UniProt Q9HAW9).
T3 sequence (Q9HAW9 26-530): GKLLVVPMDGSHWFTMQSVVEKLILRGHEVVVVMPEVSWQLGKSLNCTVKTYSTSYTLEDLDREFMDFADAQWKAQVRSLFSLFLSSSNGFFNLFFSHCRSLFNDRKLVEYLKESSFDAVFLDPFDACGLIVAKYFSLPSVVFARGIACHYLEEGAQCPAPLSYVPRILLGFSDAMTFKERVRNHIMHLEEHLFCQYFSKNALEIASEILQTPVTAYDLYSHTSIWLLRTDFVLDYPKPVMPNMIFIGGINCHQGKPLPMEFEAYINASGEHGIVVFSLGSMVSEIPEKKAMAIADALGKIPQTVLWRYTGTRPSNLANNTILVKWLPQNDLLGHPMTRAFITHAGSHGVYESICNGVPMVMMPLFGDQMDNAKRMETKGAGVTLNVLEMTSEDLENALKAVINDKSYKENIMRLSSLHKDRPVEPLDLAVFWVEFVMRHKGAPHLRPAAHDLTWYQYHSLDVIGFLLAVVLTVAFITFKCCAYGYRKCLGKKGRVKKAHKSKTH
In words: Screening assay, 4-MU glucuronidation by UGT1A8. Format: biochemical. The following applies: 250 μM 4-MU; 0, 50 or 200 μM inhibitor; FIG. 2 / FIG. 10. How it is done: (§1) FIG. 2 depicts the effect of PP inhibitors on the glucuronidation by UGT1A6, 1A8, 1A10, and 2B7. Each enzyme was incubated with 250 μM of 4-MU or linoleic acid and 0 μM (black), 50 μM (grey), or 200 μM (white) of each inhibitor. Activities are normalized to percent maximal activity.
(§2) FIG. 10 depicts the effect of PP inhibitors on the glucuronidation of 4-MU by UGT1A6, 1A8, and 1A10. Each enzyme was incubated with 250 μM 4-MU and 0, 50, or 200 μM concentrations of each inhibitor. Activities are normalized to percent maximal activity.
(§3) Synthesis of inhibitors was described previously (2).
(§4) Recombinant UGT Isoform Incubations—Recombinant human UGT1A10 and it mutants were produced in baculovirus-infected insect cells as previously described (6, 7). Synthesis of inhibitors was described previously (2). For inhibition assays, UGT recombinant membrane protein (5 μg) was incubated in reaction buffer ([…] Tris-HCl (pH 7.4)/5 mM MgCl2/5 mM saccharolactone) and 2% DMSO with substrate, inhibitor and co-substrate, UDP-GlcUA, in a total volume of 30 μl. Substrates were added in DMSO, and controls were run with each assay. No additional detergents or other activators were used in the incubations. Reactions were started by the addition of co-substrate and incubated at 37° C. (90 min for 8-hydroxywarfarin; 30 min for 4-MU; 30 min for E2). […]

Data set [5] concerns the target T2, UGT2B7. Kind of data set: IC50 assays, inhibition of UGT2B7 glucuronidation (Example 1). As to conditions: read-out: IC50 (Substrate), linoleic acid ~2 x Km, co-substrate in >5 fold excess.
Data set [6] addresses T2, UGT2B7.
The target in data set [7] is T2, UGT2B7. Kind of data set: Screening assay, linoleic acid glucuronidation by UGT2B7. Further details: made in house; host or cells: HEK239 cells (so in the source). Format: biochemical. As to conditions: 250 μM linoleic acid; 0, 50 or 200 μM inhibitor; FIG. 2. How it is done:
as §1, §3

The target in data set [8] is T4, UGT1A6 (Homo sapiens, UniProt P19224).
T4 sequence (P19224 27-532): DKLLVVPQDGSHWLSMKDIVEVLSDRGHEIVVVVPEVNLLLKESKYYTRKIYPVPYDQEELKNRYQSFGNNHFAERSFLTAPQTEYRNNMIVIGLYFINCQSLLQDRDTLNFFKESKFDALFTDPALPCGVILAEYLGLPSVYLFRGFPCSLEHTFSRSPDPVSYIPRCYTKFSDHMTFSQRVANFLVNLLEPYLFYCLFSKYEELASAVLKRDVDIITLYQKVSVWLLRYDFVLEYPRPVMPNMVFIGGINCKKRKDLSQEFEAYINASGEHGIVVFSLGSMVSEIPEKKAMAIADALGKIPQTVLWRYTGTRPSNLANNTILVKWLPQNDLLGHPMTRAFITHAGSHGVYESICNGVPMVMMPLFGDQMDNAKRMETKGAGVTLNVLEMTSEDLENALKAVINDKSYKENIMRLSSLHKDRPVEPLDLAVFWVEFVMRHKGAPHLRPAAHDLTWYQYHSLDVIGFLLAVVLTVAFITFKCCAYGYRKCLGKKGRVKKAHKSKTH
Kind of data set: Screening assay, 4-MU glucuronidation by UGT1A6. In kind it is biochemical. The following applies: 250 μM 4-MU; 0, 50 or 200 μM inhibitor; FIG. 2 / FIG. 10. How it is done:
as §1, §2, §3, §4

For data set [9], the target named is T1, UGT1A10. Kind of data set: Screening assay, 4-MU glucuronidation by UGT1A10. Further details: His; made in house; host or cells: baculovirus-infected Sf9 insect cells. As to conditions: 250 μM 4-MU; 0, 50 or 200 μM inhibitor; FIG. 2 / FIG. 10. Format: biochemical. The protocol:
as §1, §2, §3, §4

Data set [10] concerns the target T4, UGT1A6. As to conditions: cited from earlier work; for inhibition type toward UDP-GlcUA / inhibition type with 4-MU: 4-MU glucuronidation.
Substrate in data set [11]: C[C@]12CC[C@@H](O)C[C@@H]1CC[C@@H]1[C@@H]2CC[C@]2(C)C(=O)CC[C@@H]12
In words: purified protein, by the assay type. As to conditions: other: UGT2B7; Km of the aglycone substrate.

Substrate in data set [12]: O=[N+]([O-])c1ccc(O)cc1
In words: purified protein, by the assay type. As to conditions: other: UGT2B7; Km of the aglycone substrate.

Where [13] appears, read: read-out: Km (Substrate), UGT1A10, Km of the aglycone substrate, Example 2.

Like-named read-outs stand apart in the source and are kept apart here.

On to `Cc1cc(=O)oc2cc(O)ccc12` [4-MU, 4-methylumbelliferone, reference compound], for which the figures for the Km in data set [1] (setting [13]) and in data set [2] were 91.1 ± 19 µM and 200 ± 20 µM, respectively.

For the molecule `CC(=O)CC(c1ccccc1)c1c(O)c2ccc(O)cc2oc1=O` (stereo not drawn) [7-OH Warfarin, 7-hydroxywarfarin, reference compound], the figures for the Km in [1] (setting [13]) and in data set [2] were 497 ± 61 µM and 450 ± 40 µM, respectively.

For `CC(=O)CC(c1ccccc1)c1c(O)c2cccc(O)c2oc1=O` (stereo not drawn) [8-OH Warfarin, 8-hydroxywarfarin, reference compound], the Km – broadly, the concentration of substrate that gives half-maximal velocity – came to 515 ± 17 µM in data set [1] (setting [13]) and 510 ± 70 µM in data set [2].

For the molecule `C[C@]12CC[C@@H]3c4ccc(O)cc4CC[C@H]3[C@@H]1CC[C@@H]2O` [E2, reference compound], the Km came out at 48.3 ± 9 µM in data set [1] and 46 ± 5 µM in data set [2].

In the case of `CCCCC/C=C\C/C=C\CCCCCCCC(=O)O` [Linoleic Acid, reference compound], in data set [3], the Km is 160 ± 20 µM.

With `CCCCCCCCCC(=O)NC(COC(=O)NCC(=O)NCC1OC(n2ccc(=O)[nH]c2=O)C(O)C1O)C(O)c1ccccc1` (stereo not drawn) [PP36], the “effect on glucuronidation of 4-MU by UGT1A8” value in data set [4] is reported as “least effect”. Further, the IC50 came out at 740 µM in data set [5] and 210 µM in data set [6]. For the same molecule, the “effect on glucuronidation of linoleic acid by UGT2B7” value in [7] is given as “least effect”. In data set [8], the “effect on glucuronidation of 4-MU by UGT1A6” value was “least effect”. The “effect on glucuronidation of 4-MU by UGT1A10” value in [9] is listed as “least effect”.

In the case of `CCCCCCCCCC(=O)NC(COC(=O)NS(=O)(=O)OCC1OC(n2ccc(=O)[nH]c2=O)C2OC(C)(C)OC12)C(O)c1ccccc1` (stereo not drawn) [PP37P], in data set [10], the “inhibition type toward UDP-GlcUA” value is “competitive”, the “inhibition type with 4-MU” value is on record as “competitive” and the “inhibition of 4-methylumbelliferone (4-MU) glucuronidation” value (“inhibition of 4-methylumbelliferone” for short) is reported as “identified as inhibitors”. The “effect on glucuronidation of 4-MU by UGT1A8” value in data set [4] is given as “least effect”. Besides, the “effect on glucuronidation of linoleic acid by UGT2B7” value in data set [7] was “least effect”. Moreover, the “effect on glucuronidation of 4-MU by UGT1A6” value in data set [8] was “least effect”. Moreover, the “effect on glucuronidation of 4-MU by UGT1A10” value in data set [9] is on record as “least effect”.

For the molecule `CCCCCCCCCC(=O)NC(COC(=O)NS(=O)(=O)OCC1OC(n2ccc(=O)[nH]c2=O)C(O)C1O)C(O)c1ccccc1` (stereo not drawn) [PP37], in [10], the “inhibition type toward UDP-GlcUA” value is listed as “competitive”, the “inhibition type with 4-MU” value is “competitive” and the “inhibition of 4-methylumbelliferone” value was “identified as inhibitors”.

On to `CCCCCCCCCC(=O)NC(COC(=O)NS(=O)(=O)OCC1OC(n2ccc(=O)[nH]c2=O)C2OC(C)(C)OC12)Cc1ccccc1` (stereo not drawn) [PP50B], for which, in data set [10], the “inhibition type toward UDP-GlcUA” value is listed as “competitive”, the “inhibition type with 4-MU” value is “non-competitive” and the “inhibition of 4-methylumbelliferone” value is “identified as inhibitors”.

With `CCCCCCCCCC(=O)NC(COC(=O)CS(=O)(=O)OCC1OC(n2ccc(=O)[nH]c2=O)C(O)C1O)Cc1ccccc1` (stereo not drawn) [PP56B], in data set [10], the “inhibition type toward UDP-GlcUA” value is “competitive”, the “inhibition type with 4-MU” value is recorded as “competitive” and the “inhibition of 4-methylumbelliferone” value is reported as “identified as inhibitors”.

B1: UGT2B7 (Homo sapiens) (protein)
chain: T2 sequence (P16662 24-529)
Take B1: the Km in data set [11] came out at 22 ± 2 µM; in [12], 760 ± 130 µM.
